The text below walks through data of patent US20240018132A1, “5-HYDROXY-1,4-NAPHTHALENEDIONE FOR USE IN THE TREATMENT OF CANCER” (GODAVARI BIOREFINERIES LIMITED, priority 2020, published 2024).

Assay [1] deals with PC3. Description: In vitro antiproliferative assay (MTT assay), prostate cancer cell line. To be noted: Homo sapiens, PC-3, 48 h, MTT assay, prostate cancer PC3, 48 hrs drug incubation. The class given is cell-based. The protocol: (§1) MTT assay is a simple and sensitive assay where, metabolic reducing activity of the cells is measured. The increase of this activity in time is taken as a parameter of cell growth. If treatment with a drug impairs this increase, the action is a consequence of growth inhibition, cell killing or both. […] All cell lines were cultured in a 37° C. incubator with a 5% CO2 environment. Compounds were dissolved in DMSO with a concentration of 0.1M (stock solution). Cells were seeded into 96-well plates at suitable plating efficiency.
(§2) Following plating efficiencies were standardized for MTT assay:
(§3) In the MTT procedure, the cells were plated in 96 well plates as per predetermined plating efficiency (Table1). The plates were then incubated for 24 hrs in 5% CO2 atmosphere at 37° C. Appropriate concentrations of the drugs were then added to the plate and further incubation was carried out for 48 hrs (in 5% CO2 atmosphere at 37° C.). The assay plate was then centrifuged twice at 3000 rpm for 3 mins and supernatant was then discarded. 100 ul of MTT solution (0.5 mg/ml) was then added to each well of the plate and it was further incubated for 4 hrs (in 5% CO2 atmosphere at 37° C.) Following 4 hr incubation, the plate was then centrifuged twice, and supernatant was aspirated off very carefully. 200 ul of DMSO was then added to each well to solubilize. MTT crystals and mixed well by shaking the plate. XY graph of log percent viability was then plotted against log drug concentration.
On the technique in general: Tetrazolium assays rely on reduction of a dye to a coloured formazan, in cell work by metabolically active cells.

Assay [2] concerns PC3. The assay can be described thus: In vitro sphere-forming assay (cancer stem cells), Prostosphere media. To be noted: for 3D sphere count of PC3: Prostosphere media, 2000 cells/well, n = 6 ± S.D.
Procedure: (§4) In Vitro Sphere-forming Assay: Sphere assay measures the ability of cancer stem cells (CSCs) to form spheres in specially designed serum-free medium.
Prostosphere Media Preparation (For 100 mL):1 g methyl cellulose autoclaved with magnetic stirrer, 100 mL plain media (Prostate Epithelial Basal Medium) was added and dissolved, under magnetic stirring. After complete dissolution, Insulin-40 μL, B27-2 mL, EGF-80 μL, Penstrep-1 ml was added.
(§5) Procedure—The cells were trypsinised and made into single-cell suspension by passing through cell strainers (100 μl and 40 μl, respectively), The cells were diluted at a concentration of 2000 cells/100 μL and suspended in either Mammosphere (for breast cell lines) or Prostosphere (for prostate cell lines). 100 μL of this suspension was added into each well of 96-well suspension plates and incubated at 37° C., 5% CO2 for 24 hrs. Appropriate concentrations of the drugs (2 μL) were added into respective wells with 100 μL of stem cell culture medium. Plates were incubated at 37° C., 50 CO2 for 72 hrs. After incubation, 2.5 μL of the respective drug concentration and 50 μL of stem cell culture medium were added into each well and the plates were further incubated at 37° C., 50% CO2 for 72 hrs. 3 μL of the respective drug concentration was added with 50 μL of stem cell culture medium again after incubation and plates were reincubated for 72 hrs at 37° C., 50 CO2. Number of primary spheres formed for each concentration were counted. The spheres were converted to 0 viability of spheres compared to untreated (Growth Control with DMSO, GCD).
Assay [3] concerns MDAMB231. The assay can be described thus: In vitro antiproliferative assay (MTT assay), breast cancer cell line. In kind it is cell-based. The settings on record: Homo sapiens, MDA-MB-231, 48 h, MTT assay, breast cancer MDAMB231, 48 hrs drug incubation. Here is the method:
as §1, §2, §3

Assay [4] concerns MDAMB231. The assay can be described thus: In vitro sphere-forming assay (cancer stem cells), Mammosphere media. To be noted: for 3D sphere count of MDAMB231: Mammosphere media, 2000 cells/well, n = 6 ± S.D.
Procedure: as §4
Mammosphere Media Preparation (For 100 mL): 1 g methyl cellulose autoclaved with magnetic stirrer, 100 ml plain media (MEBM) was added and dissolved under magnetic stirring. After complete dissolution FGF-80 μL, EGF-40 μL, Penstrep-1 mL, Heparin-400 μL was added.
as §5
For the next assay, the system named is Human lymphocytes. Description: Lymphocyte assay (MTT on normal cells). The settings on record: Lymphocyte; human peripheral blood lymphocytes, MTT procedure. The class given is cell-based. The protocol: Human lymphocytes were isolated from the peripheral blood. A pure population of lymphocytes was obtained based on differential centrifugation, in which diluted defibrinated blood was layered on a solution of sodium diatrizoate and polysucrose (HiSep LSM 1077) and centrifuged at low speeds for 30 mins.
Procedure: The separation of lymphocytes from fresh defibrinated blood was performed by the procedure described below: • 1. Diluted defibrinated fresh blood was overlaid gradually on (HiSeP LSM1077) and centrifuged at low speed for 30 mins. • 2. The lymphocyte layer (the buffy coat) was carefully removed in a new collection tube. • 3. The buffy coat was given another wash, by the diluent buffer Dulbecco's phosphate buffered saline (D.P.B.S) • 4. The supernatant was discarded and the pellet was resuspended in D.P.B.S. • 5. The viability of cells was checked by Haemocytometer. • 6. Cells with purity and viability of more than 95% were taken for the experiment. • 7. Purified lymphocytes were diluted at a concentration of 0.7 million/ml with sterile D.P.B.S and MTT procedure was performed exactly as described earlier.

Setting [5] is: Homo sapiens, PC-3, read-out: % Viability of spheres (PC3).
Where [6] appears, read: Homo sapiens, MDA-MB-231, read-out: % Viability of spheres (MDAMB231).

What is called IC50 is the concentration needed to halve the response being measured. In general, viability refers to the share of living cells, or the viability signal relative to a control. On to `O=C1C(c2ccc3c(c2)OCO3)=CC(=O)c2c(OCCN3CCOCC3)cccc21` [Formula 1, 5-(2-morpholinoethoxy)-2-(benzo[d][1,3]dioxol-6-yl)naphthalene-1,4-dione], for which the IC50 worked out at 0.579 µM in the assay on PC3 [1], 0.656 µM in the assay on MDAMB231 [3] and 1.49 µM in the assay with Human lymphocytes. Moreover, the viability at 0.025 µM came to 80% in the assay with PC3 [2] (setting [5]) and 83% with MDAMB231 [4] (setting [6]). Moreover, the viability at 0.25 µM in the assay on PC3 [2] (setting [5]) and in the assay on MDAMB231 [4] (setting [6]) was 62% throughout. For the same molecule, the viability at 2.5 µM is 45% in the assay on PC3 [2] (setting [5]) and 44% in the assay on MDAMB231 [4] (setting [6]). Moreover, the viability at 25 µM with PC3 [2] (setting [5]) is 30%; in the assay on MDAMB231 [4] (setting [6]) it was 31%. Moreover, the results for the viability at 250 µM with PC3 [2] (setting [5]) and in the assay on MDAMB231 [4] (setting [6]) were 16% and 13%, respectively. Further, the “3D sphere count of PC3” value in the assay with PC3 [2] (drug 0.025 uM) was 65(±3); in the assay on PC3 [2] (drug 0.25 uM) it was 51(±3); with PC3 [2] (drug 2.5 uM), 37(±3); in the assay with PC3 [2] (drug 25 uM) it was 25(±3); in the assay with PC3 [2] (drug 250 uM), 13(±3). The “3D sphere count of MDAMB231” value with MDAMB231 [4] (drug 0.025 uM) is given as 64(±5); in the assay with MDAMB231 [4] (drug 0.25 uM) it was 48(±4); in the assay on MDAMB231 [4] (drug 2.5 uM) it was 34(±4); in the assay on MDAMB231 [4] (drug 25 uM), 24(±4); in the assay on MDAMB231 [4] (drug 250 uM), 10(±2).
`O=C1C(c2ccc3c(c2)OCO3)=CC(=O)c2c(OCCCC(=O)N3CCOCC3)cccc21` [Formula 69]: the IC50 with PC3 [1] worked out at 2.12 µM; with MDAMB231 [3], 2.75 µM; in the assay with Human lymphocytes, 12.1 µM. Also, the viability at 0.0025 µM amounted to 93% with PC3 [2] (setting [5]) and 86% in the assay with MDAMB231 [4] (setting [6]). Further, the viability at 0.025 µM in the assay on PC3 [2] (setting [5]) was 65%; in the assay on MDAMB231 [4] (setting [6]) it was 70%. Besides, the viability at 0.25 µM with PC3 [2] (setting [5]) was 49%; in the assay on MDAMB231 [4] (setting [6]), 57%. Also, the viability at 2.5 µM with PC3 [2] (setting [5]) and with MDAMB231 [4] (setting [6]) was 35% each time. Moreover, the viability at 25 µM with PC3 [2] (setting [5]) was 21%; in the assay with MDAMB231 [4] (setting [6]), 19%. In addition, the “3D sphere count of PC3” value with PC3 [2] (drug 0.0025 uM) was 76(±3); with PC3 [2] (drug 0.025 uM), 53(±3); with PC3 [2] (drug 0.25 uM), 40(±2); in the assay on PC3 [2] (drug 2.5 uM), 29(±2); with PC3 [2] (drug 25 uM), 17(±3). For the same molecule, the “3D sphere count of MDAMB231” value with MDAMB231 [4] (drug 0.0025 uM) is 71(±3); in the assay on MDAMB231 [4] (drug 0.025 uM), 58(±3); in the assay on MDAMB231 [4] (drug 0.25 uM), 47(±3); in the assay with MDAMB231 [4] (drug 2.5 uM), 29(±3); in the assay on MDAMB231 [4] (drug 25 uM), 16(±2).
`O=C(O)CCCOc1cccc2c1C(=O)C=C(Nc1ccc3c(c1)OCO3)C2=O` [Formula 70]: the IC50 in the assay with PC3 [1] turned out to be 2.23 µM; in the assay on MDAMB231 [3], 3.02 µM; in the assay on Human lymphocytes, 5.41 µM. Also, the viability at 0.0025 µM in the assay with PC3 [2] (setting [5]) was 95%; in the assay with MDAMB231 [4] (setting [6]), 86%. In addition, the viability at 0.025 µM was found to be 67% in the assay with PC3 [2] (setting [5]) and 74% with MDAMB231 [4] (setting [6]). The viability at 0.25 µM with PC3 [2] (setting [5]) was determined as 50%; in the assay on MDAMB231 [4] (setting [6]) it was 62%. The viability at 2.5 µM in the assay with PC3 [2] (setting [5]) and with MDAMB231 [4] (setting [6]) was 41% each time. Also, the viability at 25 µM in the assay with PC3 [2] (setting [5]) was determined as 31%; in the assay with MDAMB231 [4] (setting [6]), 24%. The “3D sphere count of PC3” value in the assay on PC3 [2] (drug 0.0025 uM) was 78(±2); with PC3 [2] (drug 0.025 uM), 55(±2); in the assay with PC3 [2] (drug 0.25 uM) it was 41(±3); with PC3 [2] (drug 2.5 uM) it was 34(±4); in the assay on PC3 [2] (drug 25 uM), 25(±3). Moreover, the “3D sphere count of MDAMB231” value with MDAMB231 [4] (drug 0.0025 uM) is 71(±3); with MDAMB231 [4] (drug 0.025 uM), 61(±3); in the assay with MDAMB231 [4] (drug 0.25 uM), 51(±3); with MDAMB231 [4] (drug 2.5 uM), 34(±3); in the assay on MDAMB231 [4] (drug 25 uM), 20(±2).
Consider `O=C1C=C(Oc2ccc3c(c2)OCO3)C(=O)c2c(OCCN3CCOCC3)cccc21` [Formula 79, 8-(2-morpholinoethoxy)-2-(benzo[d][1,3]dioxol-6-yloxy)naphthalene-1,4-dione], for which the results for the IC50 with PC3 [1] and in the assay on MDAMB231 [3] were 0.527 µM and 0.502 µM, respectively. For the same molecule, the viability at 0.0025 µM in the assay on PC3 [2] (setting [5]) amounted to 78%; with MDAMB231 [4] (setting [6]) it was 76%. Further, the results for the viability at 0.025 µM in the assay on PC3 [2] (setting [5]) and in the assay with MDAMB231 [4] (setting [6]) were 57% and 56%, respectively. Moreover, the viability at 0.25 µM with PC3 [2] (setting [5]) worked out at 43%; with MDAMB231 [4] (setting [6]), 39%. Besides, the viability at 2.5 µM in the assay with PC3 [2] (setting [5]) came out at 30%; with MDAMB231 [4] (setting [6]), 26%. Moreover, the viability at 25 µM with PC3 [2] (setting [5]) was 20%; in the assay on MDAMB231 [4] (setting [6]) it was 19%. The “3D sphere count of PC3” value in the assay with PC3 [2] (drug 0.0025 uM) was 65(±4); in the assay with PC3 [2] (drug 0.025 uM), 55(±3); with PC3 [2] (drug 0.25 uM) it was 43(±3); in the assay on PC3 [2] (drug 2.5 uM), 33(±3); in the assay on PC3 [2] (drug 25 uM), 24(±4). The “3D sphere count of MDAMB231” value with MDAMB231 [4] (drug 0.0025 uM) is recorded as 69(±3); in the assay on MDAMB231 [4] (drug 0.025 uM) it was 51(±3); in the assay on MDAMB231 [4] (drug 0.25 uM), 35(±3); in the assay with MDAMB231 [4] (drug 2.5 uM) it was 24(±3); in the assay with MDAMB231 [4] (drug 25 uM) it was 17(±3).
In the case of `O=C1C=C(Oc2ccc(F)cc2)C(=O)c2c(OCCN3CCOCC3)cccc21` [Formula 80, 8-(2-morpholinoethoxy)-2-(4fluorophenoxy)naphthalene-1,4-dione], the IC50 with PC3 [1] came out at 0.482 µM; in the assay with MDAMB231 [3] it was 0.352 µM. Further, the viability at 0.0025 µM was determined as 73% in the assay on PC3 [2] (setting [5]) and 75% with MDAMB231 [4] (setting [6]). Besides, the values for the viability at 0.025 µM in the assay on PC3 [2] (setting [5]) and in the assay on MDAMB231 [4] (setting [6]) were 56% and 53%, respectively. The viability at 0.25 µM came to 37% in the assay with PC3 [2] (setting [5]) and 39% in the assay on MDAMB231 [4] (setting [6]). Moreover, the viability at 2.5 µM in the assay on PC3 [2] (setting [5]) amounted to 27%; with MDAMB231 [4] (setting [6]) it was 23%. Further, the viability at 25 µM is 17% in the assay with PC3 [2] (setting [5]) and 15% in the assay on MDAMB231 [4] (setting [6]). For the same molecule, the “3D sphere count of PC3” value in the assay with PC3 [2] (drug 0.0025 uM) was 59(±3); in the assay with PC3 [2] (drug 0.025 uM) it was 45(±3); in the assay with PC3 [2] (drug 0.25 uM) it was 30(±2); in the assay with PC3 [2] (drug 2.5 uM), 22(±4); in the assay on PC3 [2] (drug 25 uM), 14(±3). Also, the “3D sphere count of MDAMB231” value with MDAMB231 [4] (drug 0.0025 uM) is recorded as 68(±4); with MDAMB231 [4] (drug 0.025 uM) it was 48(±3); in the assay with MDAMB231 [4] (drug 0.25 uM), 35(±4); in the assay with MDAMB231 [4] (drug 2.5 uM) it was 21(±3); with MDAMB231 [4] (drug 25 uM) it was 14(±4).
